These results are taken from PMC12503906, “Novel Pyrazolo [1,5‐a]−1,3,5‐Triazine Derivatives as CDK7 Inhibitors: Synthesis and Biological Insights in Pancreatic Ductal Adenocarcinoma Models” (Chemmedchem, 2025).

Format in all cases: cell-based
In one assay the test system is PATU‐T GR. As to the kind of experiment: Wound healing assay, PATU‐T GR. The note with it: 1× and 4 × IC50, up to 24 h. As for the experimental part:
(§1) The wound healing assay was used to test the migratory ability of the selected cells post‐treatment. Cells (5 × 10^4 /well) were seeded on 96‐well. After 24 h, cells reached the optimal 100% confluency, and an artificial wound was created with a 96‐well Pintool Scratcher. The cells were immediately washed with complete medium, in order to remove cell debris after the scratch, and images of the wells were captured at time 0 h, right before the addition of the treatment. Each drug (1b and 1g) was previously diluted in the respective medium at two different concentrations: 1 × IC50 and 4 × IC50 (according to the cell specific IC50 value) and were then added to the cells. Images were then taken at timepoints 4, 8, 20, and 24 h using the Leica microscope with a JAI TMC‐137 camera to assess wound closure. The images were analyzed using the Universal Grab 6.3 software (DCILabs), and the obtained data were used to determine the percentage of migration of the cells, using the following formula. (2) % Migration=Mean width of the wound atT=0−Mean width of the wound atT=X/Mean width of the wound atT=0×100

The test system of the next assay is PDAC3. As to the kind of experiment: Wound healing assay, PDAC3. The note with it: PDAC3, up to 24 h. As for the experimental part:
as §1

Assay [1] has as its system SUIT 2.28. As to the kind of experiment: Cell cycle analysis (FACS, PI staining), SUIT 2.28. The note with it: for percentage of cells in the G0‐G1 phase: untreated 24.6%; for percentage of cells in the G2‐M phase: untreated 32.7%; for percentage of cells in the S phase: untreated 42.7%. As for the experimental part:
Modulation of the cell cycle was analyzed via flow cytometry. Cells (5 × 10^5 cells mL^− ^1) were seeded in 6‐well plates and were incubated at 37 °C overnight. Cells were treated with the compounds 1b and 1g at two different concentrations (1 × IC50 and 4 × IC50, according to each cell line) and were again incubated for 24 and 72 h. After treatment, cells were harvested with trypsin and were collected in specific fluorescence‐activated cell sorting (FACS) tubes. Cells were then washed with PBS and centrifuged at 1500 rpm for 5 min, in order to form a pellet. These pellets were fixed in 1 mL of ice‐cold 70% ethanol, added drop by drop during vortex, and placed in the refrigerator at 4 °C. After overnight incubation, the cells were washed twice with PBS, centrifuged (5 min at 1500 rpm), resuspended in 50 µL of RNase (100 µg mL^− ^1), and incubated for 30 min at 37 °C. Finally, 200 µL of propidium iodide solution (PI, 50 µg mL^− ^1) was added, and the cell distribution in the various phases of the cell cycle was analyzed via BD LSRFortessa Cell Analyzer. Data analysis was carried out with FACSdiva software (Becton Dickinson), while cell cycle distribution was determined using FCS express software.

For assay [2], the system named is SUIT 2.28. As to the kind of experiment: Wound healing assay, SUIT 2.28. The protocol: as §1
The subject of assay [3] is Bax/Bcl‐2. As to the kind of experiment: Bax/Bcl‐2 ratio by RT‐PCR, PANC‐1 cells. The protocol: (§2) In order to understand modulation of downstream genes of CDK7, gene expression analysis by qPCR was performed in all cell lines. Cells (5 × 10^5/well) were seeded in 6‐well plates and treated with the compounds 1b and 1g at 1× and 4 × IC50 concentrations. Cell lysates were collected 24 h post‐treatment using 300 µL of TRIzol Reagent (Ambion, 15,596,018) per well. Total RNA was extracted by mixing 60 µL of chloroform to the samples, incubating for 3 min and centrifuging at 12,000 rcf for 15 min at 4 °C. The upper aqueous phase containing RNA was transferred to a new Eppendorf and mixed with 120 µL of cold isopropanol in order to allow the RNA to precipitate. Samples were incubated at RT for 10 min and were then centrifuged at 12,000 rcf for 10 min at 4 °C. The isopropanol was carefully removed, and the pellet was washed twice with 70% ETOH. Pellets were left to air dry and consequently resuspended in RNAse‐free water. Samples were left agitation on a thermomixer at 55 °C for 10 min at 600 rpm and were then quantified through NanoDrop technology (Thermo Scientific, NanoDrop One/One^c). RNA samples were stored at −80 °C.
(§3) In order to perform cDNA synthesis, the First Strand cDNA synthesis kit (Thermo Scientific, K1612) was used. The previously isolated RNA was mixed with 1 µL of oligo dT18 primer into a pcr tube. Nuclease free water was added to reach a final volume of 11 µL. Samples were centrifuged at 1200 rcf for 5 min and were then placed on a thermomixer at 65 °C for a few minutes. A master mix was prepared, including 4 µL of 5× reaction buffer, 1 µL of ribolock RNAse inhibitor, 2 µL of dntp mix (10 mM), and 2 µL of M‐mulv reverse transcriptase for each sample. In total 9 µL of master mix were added to each vial. Samples were centrifuged again and were finally synthesized, following a cycle of 60 min at 37 °C and 5 min at 70 °C. cDNA was now finally synthesized and could be stored at −20 °C. RT‐PCRs reactions were performed using SYBR Green (Bio‐Rad, 1,725,271) (5 µL per sample), primer mix (0.3 µM) (2 µL per sample), and cDNA (10 ng µL^− ^1) (3 µL per sample). […] RT‐PCR assays were carried out in a GeneAmp 5700 Sequence Detection System programmed to hold at 50 °C for 30 min, to hold at 95 °C for 10 min, and to complete 45 cycles of 95 °C for […] and 50 °C for 1 min. The genes that were investigated are shown in Table 5 , with their respective forward and reverse primer sequences.

Assay [4] concerns Bax/Bcl‐2. As to the kind of experiment: Bax/Bcl‐2 ratio by RT‐PCR, PDAC3 cells. As for the experimental part: as §2, §3

As to `Cn1cc(-c2cc3ncnc(N)n3n2)c2cc(Br)ccc21` [Compound 1g, 7‐(5‐Bromo‐1‐methyl‐1H‐indol‐3‐yl)pyrazolo[1,5‐a][1,3,5]triazin‐4‐amine], the “inhibition of cell migration” value with PATU‐T GR is given as “significantly inhibited as early as 4 h”; with PDAC3, “significant migration inhibition only at the 24‐hour time point”; with SUIT 2.28 [2] (SUIT 2.28, 1 × IC50) it was “greatest inhibition”. Moreover, the “percentage of cells in the G0‐G1 phase” value with SUIT 2.28 [1] (SUIT 2.28, 1 × IC50, 24 h) is 36.2%; in the assay with SUIT 2.28 [1] (SUIT 2.28, 4 × IC50, 24 h) it was 40.3%. The “percentage of cells in the G2‐M phase” value was 25.9% in the assay on SUIT 2.28 [1] (SUIT 2.28, 1 × IC50, 24 h) and 25.4% in the assay with SUIT 2.28 [1] (SUIT 2.28, 4 × IC50, 24 h). The “percentage of cells in the S phase” value was 37.8% with SUIT 2.28 [1] (SUIT 2.28, 1 × IC50, 24 h) and 34.2% with SUIT 2.28 [1] (SUIT 2.28, 4 × IC50, 24 h). Moreover, the “Bax/Bcl‐2 ratio PANC‐1” value in the assay with Bax/Bcl‐2 [3] (1 × IC50, 24 h after treatment) turned out to be 6.41; with Bax/Bcl‐2 [3] (4 × IC50, 24 h after treatment) it was 1.83. Also, the “Bax/Bcl‐2 ratio PDAC3” value is 0.36 in the assay with Bax/Bcl‐2 [4] (1 × IC50, 24 h after treatment) and 0.38 in the assay on Bax/Bcl‐2 [4] (4 × IC50, 24 h after treatment).

Regarding `Nc1ncnc2cc(-c3c[nH]c4ccc(Br)cc34)nn12` [Compound 1b, 7‐(5‐Bromo‐1H‐indol‐3‐yl)pyrazolo[1,5‐a][1,3,5]triazin‐4‐amine], the “inhibition of cell migration” value is listed as “significantly inhibited as early as 4 h” in the assay with PATU‐T GR; “significant migration inhibition only at the 24‐hour time point” in the assay on PDAC3; “strong inhibitory effects” in the assay with SUIT 2.28 [2] (SUIT 2.28, 1 × IC50 and 4 × IC50). Also, the “percentage of cells in the G0‐G1 phase” value in the assay on SUIT 2.28 [1] (SUIT 2.28, 1 × IC50, 24 h) was determined as 41.0%; with SUIT 2.28 [1] (SUIT 2.28, 4 × IC50, 24 h), 41.6%. Moreover, the “percentage of cells in the G2‐M phase” value in the assay with SUIT 2.28 [1] (SUIT 2.28, 1 × IC50, 24 h) is reported as 18.7%; in the assay on SUIT 2.28 [1] (SUIT 2.28, 4 × IC50, 24 h) it was 21.6%. The “percentage of cells in the S phase” value is given as 40.3% in the assay on SUIT 2.28 [1] (SUIT 2.28, 1 × IC50, 24 h) and 34.9% with SUIT 2.28 [1] (SUIT 2.28, 4 × IC50, 24 h). For the same molecule, the “Bax/Bcl‐2 ratio PANC‐1” value with Bax/Bcl‐2 [3] (1 × IC50, 24 h after treatment) is listed as 4.12; in the assay with Bax/Bcl‐2 [3] (4 × IC50, 24 h after treatment), 2.44. The “Bax/Bcl‐2 ratio PDAC3” value in the assay with Bax/Bcl‐2 [4] (1 × IC50, 24 h after treatment) is listed as 0.44; in the assay with Bax/Bcl‐2 [4] (4 × IC50, 24 h after treatment), 0.01.
